Source: the Deep4Chem optical property database
Where “and” joins values, the source holds several entries; their conditions need not be identical. Equal values may be shown once. Blank lines part the entries; values can stand above or below the compound they belong to.

Test: solvent given as SMILES

Structure (SMILES): CC(C)(C)c1ccc2c(c1)c1cc(C(C)(C)C)ccc1n2-c1cc(-n2c3ccc(C(C)(C)C)cc3c3cc(C(C)(C)C)ccc32)c(-n2c3ccc(C(C)(C)C)cc3c3cc(C(C)(C)C)ccc32)c(C#N)c1-n1c2ccc(C(C)(C)C)cc2c2cc(C(C)(C)C)ccc21
emission maximum (in CCCCCC): 449.25 nm | emission maximum (in CCO): 484.15 nm | emission maximum (in Cc1ccccc1): 456 nm | emission maximum (in ClCCl): 472.48 nm

emission maximum (in CCCCCCCCCCCCCC): 481 nm
Structure (SMILES): CCCCCCCCCCc1cc(-c2cc(CCCCCCCCCC)c(-c3cccs3)s2)sc1-c1cccs1

emission maximum (in ClCCl): 476 nm
Structure (SMILES): c1ccc2c(c1)ccc1ccc3ccc4ccc5ccccc5c4c3c12

Structure (SMILES): CC1(C)c2ccccc2N(c2c(F)cc(-c3nnc(-c4ccccc4)o3)cc2F)c2ccccc21
emission maximum (in Cc1ccccc1): 490 nm | emission maximum (in O=P(c1ccccc1)(c1ccccc1)c1ccccc1Oc1ccccc1P(=O)(c1ccccc1)c1ccccc1): 495 nm

emission maximum (in C1CCCCC1): 422 nm | emission maximum (in CS(C)=O): 599 nm | emission maximum (in ClC(Cl)Cl): 510 nm
Structure (SMILES): CN(C)c1ccc(-c2cc(-c3ccc4ccccc4c3)nc(-c3ccccc3)n2)cc1

emission maximum (in CC#N): 460 nm
Structure (SMILES): CCOC(=O)c1c(C=Cc2ccccc2)oc(NC2CCCCC2)c1C(=O)OCC

emission maximum (in CC#N): 381 nm
Structure (SMILES): Cc1sc(Cl)cc1-c1nc(-c2ccccc2)[nH]c1-c1cc(Cl)sc1C

Structure (SMILES): COc1ccc(/C=C/c2cc(/C=C/c3ccc(OC)cc3)nc(/C=C/c3ccc(N(c4ccccc4)c4ccccc4)cc3)n2)cc1
emission maximum (in C1CCOC1): 511 nm | emission maximum (in CC#N): 627 nm | emission maximum (in CC(C)=O): 572 nm | emission maximum (in CCCCCCC): 439 nm | emission maximum (in CS(C)=O): 622 nm | emission maximum (in Cc1ccccc1): 466 nm | emission maximum (in ClCCl): 558 nm

Structure (SMILES): CCc1c(C)[nH]c(C2=[N+]3C(=C(C)c4c(C)c(CC)c(C)n4[B-]3(F)F)c3ccccc32)c1C
emission maximum (in C1CCOC1): 656 nm | emission maximum (in CC#N): 652 nm | emission maximum (in CCCCCC): 636 nm | emission maximum (in CO): 650 nm | emission maximum (in Cc1ccccc1): 646 nm | emission maximum (in ClCCl): 645 nm

emission maximum (in ClCCl): 426 nm
Structure (SMILES): COc1cc2c3sc4ccccc4c3c3cncnc3c2c(OC)c1OC

emission maximum (in ClCCl): 588 nm
Structure (SMILES): F[B-]1(F)n2c(c3c(c2-c2ccccc2)C2C=CC3CC2)C(c2ccccc2)=C2C3=C(C(c4ccccc4)=[N+]21)C1C=CC3CC1 (stereo not given)

Structure (SMILES): CCCCCCCCCCCCC(CCCCCCCCCC)Cn1c2cc(/C=C/C=C/c3nc4ccccc4s3)c3cccc4c5cccc6c(/C=C/C=C/c7nc8ccccc8s7)cc1c(c65)c2c34 (stereo not given)
emission maximum (in C1CCCCC1): 588 nm | emission maximum (in CC#N): 608 nm | emission maximum (in Cc1ccccc1): 604 nm | emission maximum (in ClCCl): 612 nm

Structure (SMILES): COc1ccc(-c2nnc(-c3cc(-n4c5ccccc5c5ccccc54)c(-n4c5ccccc5c5ccccc54)cc3-c3nnc(-c4ccc(OC)cc4)o3)o2)cc1
emission maximum (in CC#N): 515.81 nm | emission maximum (in Cc1ccccc1): 459 nm | emission maximum (in ClCCl): 487.92 nm

emission maximum (in O): 360 nm and 345 nm and 340 nm
Structure (SMILES): c1ccc2[nH]ccc2c1

emission maximum (in ClCCl): 474 nm
Structure (SMILES): CCCCOc1c(OC)cc2cc(OC)c(OCCCC)c3c4c(OCCCC)c(OC)cc5cc(OC)c(OCCCC)c(c1c23)c54

emission maximum (in ClC(Cl)Cl): 482 nm
Structure (SMILES): c1ccc(-c2nc(-c3ccccn3)sc2N(c2ccccc2)c2ccccc2)cc1

emission maximum (in ClCCl): 466 nm
Structure (SMILES): Cc1cn2cc(-c3ccc(-c4ccccc4)cc3)[n-][n+]2c1

emission maximum (in CC#N): 330 nm | emission maximum (in CCCCCC): 328 nm
Structure (SMILES): C/C=C/c1ccc(OC)cc1

emission maximum (in ClCCl): 631 nm
Structure (SMILES): O=[N+]([O-])c1ccc2c(ccc3[n+]2[B-](F)(F)n2c-3cc3c4ccccc4c4ccccc4c32)c1

emission maximum (in CO): 456 nm | emission maximum (in ClCCl): 440 nm
Structure (SMILES): CCCCCCN(CCCCCC)c1ccc(C#Cc2ccc(C(F)(F)F)cc2)cc1

emission maximum (in C1CCCCC1): 343 nm | emission maximum (in CC#N): 369.45 nm | emission maximum (in CCCCCC): 339.87 nm | emission maximum (in CCO): 384 nm | emission maximum (in O): 392 nm | emission maximum (in OCC(F)(F)F): 380 nm
Structure (SMILES): N#Cc1cccc(N)c1

emission maximum (in ClCCl): 459 nm
Structure (SMILES): c1cc2ccc3ccc(OP4(Oc5ccc6ccc7cccc8ccc5c6c78)=NP(Oc5ccc6ccc7cccc8ccc5c6c78)(Oc5ccc6ccc7cccc8ccc5c6c78)=NP(Oc5ccc6ccc7cccc8ccc5c6c78)(Oc5ccc6ccc7cccc8ccc5c6c78)=N4)c4ccc(c1)c2c34

emission maximum (in CO): 488 nm
Structure (SMILES): c1ccc(N(c2ccccc2)c2ccc(-c3cnc(-c4ccc(N(c5ccccc5)c5ccccc5)cc4)s3)cc2)cc1

emission maximum (in CCO): 644 nm | emission maximum (in O): 652 nm
Structure (SMILES): CC/[NH+]=c1\cc2oc3cc(NCCC(=O)NCC(=O)OC)c4ccccc4c3nc-2cc1C

emission maximum (in ClCCl): 360 nm
Structure (SMILES): c1ccc(C2c3ccccc3-c3cc4c(cc32)-c2ccccc2C4c2ccccc2)cc1 (stereo not given)

emission maximum (in ClCCl): 559 nm
Structure (SMILES): Cc1ccc(C2=C(c3ccc(C)cc3)c3cccc4c3c(cc3nc5ccccc5nc34)O2)cc1

emission maximum (in CC#N): 427 nm
Structure (SMILES): c1ccc(C[n+]2cc3ccc4c[n+](Cc5ccccc5)cc5ccc(c2)c3c45)cc1

emission maximum (in CC#N): 380 nm
Structure (SMILES): COc1ccc(C#Cc2ccccc2C#Cc2ccc(OC)cc2)cc1

emission maximum (in CCCCCC): 536 nm | emission maximum (in c1ccccc1): 605 nm
Structure (SMILES): O=C1OC(=O)c2ccc(N(c3ccccc3)c3ccc4ccc5cccc6ccc3c4c56)c3cccc1c23

emission maximum (in C1CCOC1): 403 nm | emission maximum (in C1COCCO1): 412 nm | emission maximum (in CC#N): 408 nm | emission maximum (in CCCCCC): 392 nm | emission maximum (in CCO): 419 nm | emission maximum (in CN(C)C=O): 423 nm | emission maximum (in CO): 418 nm | emission maximum (in CS(C)=O): 427 nm | emission maximum (in ClC(Cl)Cl): 415 nm | emission maximum (in ClCCl): 411 nm
Structure (SMILES): COc1ccc2c(c1)CCc1c-2nc(N)c(C#N)c1-c1ccc(Br)cc1

emission maximum (in ClCCl): 420 nm
Structure (SMILES): CCCCC(CC)Cn1c2cc(C#N)ccc2c2ccc(C#Cc3ccc4ccc5cccc6ccc3c4c56)cc21 (stereo not given)

emission maximum (in ClC(Cl)Cl): 619 nm
Structure (SMILES): CN1C(=CC2=C([O-])C(=Cc3oc4ccccc4[n+]3C)C2=O)C(C)(C)c2ccccc21

emission maximum (in CCO): 674 nm | emission maximum (in CO): 674 nm | emission maximum (in CS(C)=O): 681 nm | emission maximum (in O): 669 nm
Structure (SMILES): CN1/C(=C/C=C(/C=C/c2sc3ccccc3[n+]2C)c2ccc(F)cc2)Sc2ccccc21

Structure (SMILES): CCC1=C(C)C2=Cc3c(I)c(I)cn3[B-](F)(F)[N+]2=C1C
emission maximum (in C1CCCCC1): 537 nm | emission maximum (in CC(C)=O): 544 nm | emission maximum (in CCO): 541.5 nm | emission maximum (in CCOC(C)=O): 539.5 nm | emission maximum (in CO): 541.5 nm | emission maximum (in OCC(F)(F)F): 538 nm

emission maximum (in CS(C)=O): 350 nm
Structure (SMILES): Cc1cc2c(cc1[N+](=O)[O-])NC(=O)CC(=O)N2

emission maximum (in ClCCl): 475 nm
Structure (SMILES): COC(=O)c1[nH]c(-c2ccc(Br)cc2)c2nnc3ccc(OC)cc3c12

Structure (SMILES): Cc1cccc2cc(-c3cc4cccc(C)c4oc3=O)oc12
emission maximum (in CC#N): 451 nm | emission maximum (in CCOC(C)=O): 436 nm | emission maximum (in CS(C)=O): 456 nm | emission maximum (in Cc1ccccc1): 436 nm | emission maximum (in O): 488 nm

Structure (SMILES): Cc1cc(C)c2c(c1)c1cc(C)cc(C)c1n2-c1ccc2c(c1)B(c1c(C(C)C)cc(C(C)C)cc1C(C)C)c1cc(-n3c4c(C)cc(C)cc4c4cc(C)cc(C)c43)ccc1N2c1ccccc1
emission maximum (in C1CCOC1): 447.96 nm | emission maximum (in CCOC(C)=O): 447.96 nm | emission maximum (in Cc1ccccc1): 441.5 nm | emission maximum (in ClCCl): 453.4 nm | emission maximum (in c1cc(-c2cccc(-n3c4ccccc4c4ccccc43)c2)cc(-n2c3ccccc3c3ccccc32)c1): 451 nm

emission maximum (in CCO): 576 nm | emission maximum (in ClCCl): 566 nm | emission maximum (in O): 595 nm
Structure (SMILES): O=Cc1ccc(-c2cccc(-c3nc4ccccc4s3)c2O)s1

emission maximum (in ClCCl): 515 nm
Structure (SMILES): CCOc1ccc(/C=C/c2nc(N3CCOCC3)c3c([n+]2[O-])CCCC3)cc1

emission maximum (in ClC(Cl)Cl): 395 nm
Structure (SMILES): c1ccc(-c2cc(-c3ccc4c(c3)C3(c5ccccc5-c5ccccc53)c3cc(-c5cc(-c6ccccn6)nc(-c6ccccn6)c5)ccc3-4)cc(-c3ccccn3)n2)nc1

emission maximum (in C1COCCO1): 539 nm
Structure (SMILES): O=C1NC(c2ccccc2)=C/C1=C\c1ccccc1
